# In patent US20030153549A1, “Clavams as protease inhibitors” (priority 2000, published 2003):
# How the values were obtained:
# [1] = target: porcine pancreatic elastase PPE (Sus scrofa, UniProt P00772); experiment: Enzyme assay: hydrolysis of Suc-AlaAlaProAla-pNa by PPE, measured at 405 nm; type: biochemical; settings: for IC50: substrate 100 μM, 25° C., pH 7.5, 10% DMSO; for inhibitory potency with pre-incubation of the clavam with PPE: with pre-incubation versus without
# Procedure: Enzyme assays. Enzyme assays were performed using a Shimadzu 1601PC spectrophotometer equipped with a thermostatted multi-cell transport system. The hydrolysis of the para-nitroanilide substrate (Suc-AlaAlaProAla-pNa, 100 μM) was measured at 405 nm and at a constant temperature of 25° C. in 0.1 M Tris-HCl buffer (pH 7.5). At least quadruplicate measurements of the initial rate were determined at five inhibitor concentrations and data analysed using standard kinetic equations programmed into Excel (Microsoft Corp.) and Grafit (Erithacus Inc.). To aid solubility the clavam inhibitors were dissolved in DMSO to give a final concentration in the assay of 10% (v/v).
# It is likely that the lack of inhibition observed from clavulanic acid (1) is due to the presence of a negative charge on the carboxylic acid on C-3 which prevents binding within the PPE active site.
# [2] = target: T1, PPE (Sus scrofa, UniProt P00772); experiment: Electrospray ionisation mass spectrometry of PPE incubated with one equivalent of inhibitor (adduct formation); type: binding, porcine; settings: time points 3 minutes to 5 hours, unbuffered
# T1 sequence (P00772 27-266): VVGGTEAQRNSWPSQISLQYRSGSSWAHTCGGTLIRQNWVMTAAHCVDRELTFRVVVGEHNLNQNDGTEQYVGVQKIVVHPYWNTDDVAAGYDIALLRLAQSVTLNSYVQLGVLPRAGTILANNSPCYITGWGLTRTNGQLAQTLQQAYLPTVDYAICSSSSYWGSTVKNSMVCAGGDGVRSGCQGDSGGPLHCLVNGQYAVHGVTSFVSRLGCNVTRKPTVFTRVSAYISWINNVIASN
# Procedure: Electrospray ionisation mass spectrometry. Electrospray ionisation mass spectra were recorded on a Micromass BioQ II-ZS triple quadruple mass spectrometer equipped with an electrospray interface. PPE at 80 pmol μl^−1 was incubated with one equivalent of inhibitor. Samples (5 μl) were removed at fixed time points, diluted with water:acetonitrile (1:1 v/v) containing 0.2% (v/v) formic acid to give a protein concentration of 5 pmol μl^−1 and analysed immediately. The resulting electrospray mass spectra were calibrated relative to native porcine pancreatic elastase PPE and processed using the MaxEnt algorithm and the spectra reported as centroided data.
# [3] = target: T1, PPE; experiment: 1H NMR analysis of incubation of PPE with clavulanic acid derivative (ester hydrolysis); type: biochemical, porcine; settings: D2O/CD3CN, 303K
# Procedure: NMR experimental procedures. ^1H NMR analyses were performed at 500 MHz on a Bruker AMX500 instrument. Samples (450-500 μl) of PPE (ca. 3 mg) and clavulanic acid derivative (ca 3 mg) were dissolved in 10% (v/v) CD3CN in D2O. The temperature was regulated at 303K and the spectra were referenced to internal MeCN at 2.05 ppm.
# Their identity was subsequently confirmed by doping experiments.
# Sequence of porcine pancreatic elastase PPE (P00772 27-266): as above
inhibition ([1]; pre-incubation of clavam with PPE 15 minutes),inhibition ([1]; pre-incubation of clavam with PPE 30 minutes),inhibition ([1]; pre-incubation of clavam with PPE 60 minutes),IC50 ([1]; standard assay conditions),inhibitory potency with pre-incubation of the clavam with PPE [1],SMILES,inhibition of PPE ([1]; standard assay conditions),mass increments / adducts relative to native PPE (ESIMS) [2],PPE-catalysed hydrolysis of the ester side chain (1H NMR) [3]
–,–,–,–,–,"O=C(O)[C@H]1/C(=C/CO)O[C@@H]2CC(=O)N21 [compound 1, Clavulanic acid, reference compound]",did not inhibit PPE,no mass increments,–
43%,87%,93%,184 µM,increased significantly,O=C(OCc1ccccc1)[C@H]1/C(=C/CO)O[C@@H]2CC(=O)N21 [compound 9],–,formation of an initial acyl-enzyme complex,just visible after a one hour incubation period
–,–,–,187 µM,increased significantly,O=C(OCc1ccc([N+](=O)[O-])cc1)[C@H]1/C(=C/CO)O[C@@H]2CC(=O)N21 [compound 10],–,formation of the 70 and 88 Da adducts appeared to be slightly faster,–
